Reference: patent US8178506B2, “Oligomeric compounds and compositions for use in modulation of small non-coding RNAs” (Regulus Therapeutics Inc., priority 2003, dated 2012)
In the oligonucleotide strings, read from the 5' end, every base follows the letter of its sugar. An asterisk marks phosphorothioate; unmarked linkages are phosphodiester. Other units and linkages are bracketed, terminal groups are in braces. A string of capitals states the bases alone. e = 2'-O-(2-methoxyethyl) (MOE); [5mC] = 5-methylcytosine; d = 2'-deoxy (DNA)

System: B16-F10 cells
Assay: Cell cycle assay in B16-F10 cells
Type: cell-based, mouse
Conditions: 150 nM, 48 hours, relative to untreated control

“328403 (antisense eA*eG*eG*e[5mC]*e[5mC]*dT*dA*dT*dT*d[5mC]*d[5mC]*dT*dG*dT*dA*eG*e[5mC]*eA*eA*eA) [compound 328403]” was tested, and the “% cells in cell cycle phase G1” value was 111%, the “% cells in cell cycle phase G2/M” value was 99% and the “% cells in cell cycle phase S” value was 88%. The “% cells in cell cycle phase aneuploid” value was 92% and the “% cells in cell cycle phase subG1” value was 112%.
